# Results published in paper PMC5862616 (Oncotarget, 2018).
# Where two headings read alike, the source gives them in different places.
# What was measured:
# [1] = tested on: KM-12 cells; assay: KM-12 anchorage independent growth in alginate; assay type: cell-based; conditions: alginate, 72 hours, colony formation, read-out: IC50 KM-12 anchorage independent growth
# [2] = molecular target: MKNK1 (Homo sapiens, UniProt Q9BUB5); assay: scanMAX kinase panel
# [3] = molecular target: T1, FLT3 (Homo sapiens, UniProt P36888); assay: scanMAX kinase panel
# T1 sequence (P36888 27-993): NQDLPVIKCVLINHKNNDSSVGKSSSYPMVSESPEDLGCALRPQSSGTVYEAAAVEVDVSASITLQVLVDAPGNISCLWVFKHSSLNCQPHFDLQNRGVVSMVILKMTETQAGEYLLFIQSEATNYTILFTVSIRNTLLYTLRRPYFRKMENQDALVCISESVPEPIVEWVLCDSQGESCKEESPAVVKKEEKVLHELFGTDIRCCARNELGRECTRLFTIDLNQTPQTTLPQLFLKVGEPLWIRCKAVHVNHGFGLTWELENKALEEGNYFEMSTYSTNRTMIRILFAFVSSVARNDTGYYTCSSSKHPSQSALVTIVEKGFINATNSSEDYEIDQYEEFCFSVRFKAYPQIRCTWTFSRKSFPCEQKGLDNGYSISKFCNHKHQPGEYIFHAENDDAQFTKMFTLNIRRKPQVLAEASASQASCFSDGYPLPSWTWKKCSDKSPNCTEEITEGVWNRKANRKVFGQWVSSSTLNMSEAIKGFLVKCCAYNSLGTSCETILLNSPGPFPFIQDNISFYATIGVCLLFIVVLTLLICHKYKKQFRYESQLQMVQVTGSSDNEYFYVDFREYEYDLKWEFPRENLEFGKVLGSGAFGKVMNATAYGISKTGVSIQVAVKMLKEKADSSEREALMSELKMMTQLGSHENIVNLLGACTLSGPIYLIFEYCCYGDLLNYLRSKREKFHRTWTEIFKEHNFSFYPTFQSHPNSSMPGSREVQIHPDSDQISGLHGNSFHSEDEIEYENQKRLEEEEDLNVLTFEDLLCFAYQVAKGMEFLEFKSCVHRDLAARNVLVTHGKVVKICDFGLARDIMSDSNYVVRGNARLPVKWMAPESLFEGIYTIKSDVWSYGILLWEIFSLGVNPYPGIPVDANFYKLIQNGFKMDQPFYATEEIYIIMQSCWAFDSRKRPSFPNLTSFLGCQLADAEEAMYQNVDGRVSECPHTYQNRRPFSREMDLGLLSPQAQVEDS
# [4] = molecular target: T2, MERTK (Homo sapiens, UniProt Q12866); assay: scanMAX kinase panel
# T2 sequence (Q12866 21-999): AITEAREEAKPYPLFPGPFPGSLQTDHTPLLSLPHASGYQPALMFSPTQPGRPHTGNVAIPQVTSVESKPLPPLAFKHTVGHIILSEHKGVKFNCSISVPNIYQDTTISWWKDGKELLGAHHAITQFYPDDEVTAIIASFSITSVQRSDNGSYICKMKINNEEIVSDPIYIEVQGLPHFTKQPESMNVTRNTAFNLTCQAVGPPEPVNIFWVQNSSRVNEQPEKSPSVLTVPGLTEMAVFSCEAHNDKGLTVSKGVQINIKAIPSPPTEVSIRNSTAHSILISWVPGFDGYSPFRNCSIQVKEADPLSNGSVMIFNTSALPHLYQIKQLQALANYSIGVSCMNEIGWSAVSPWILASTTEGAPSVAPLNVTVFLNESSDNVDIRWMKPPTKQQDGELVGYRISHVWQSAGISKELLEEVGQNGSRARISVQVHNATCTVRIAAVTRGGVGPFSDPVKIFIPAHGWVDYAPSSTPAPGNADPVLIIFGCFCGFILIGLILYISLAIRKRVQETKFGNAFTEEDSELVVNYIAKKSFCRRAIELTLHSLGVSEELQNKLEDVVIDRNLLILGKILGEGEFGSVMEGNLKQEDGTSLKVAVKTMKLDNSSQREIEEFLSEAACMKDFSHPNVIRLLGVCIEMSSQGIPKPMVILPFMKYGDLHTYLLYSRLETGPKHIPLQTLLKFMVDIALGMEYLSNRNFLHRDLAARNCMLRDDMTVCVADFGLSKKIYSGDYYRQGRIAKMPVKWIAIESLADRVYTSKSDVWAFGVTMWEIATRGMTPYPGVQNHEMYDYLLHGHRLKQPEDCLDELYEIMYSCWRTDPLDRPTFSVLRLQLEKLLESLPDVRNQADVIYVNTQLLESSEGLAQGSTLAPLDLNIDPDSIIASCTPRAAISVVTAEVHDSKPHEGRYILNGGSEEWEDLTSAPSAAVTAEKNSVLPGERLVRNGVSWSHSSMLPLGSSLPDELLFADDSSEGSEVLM
# [5] = molecular target: T3, TYRO3 (Homo sapiens, UniProt Q06418); assay: scanMAX kinase panel
# T3 sequence (Q06418 41-890): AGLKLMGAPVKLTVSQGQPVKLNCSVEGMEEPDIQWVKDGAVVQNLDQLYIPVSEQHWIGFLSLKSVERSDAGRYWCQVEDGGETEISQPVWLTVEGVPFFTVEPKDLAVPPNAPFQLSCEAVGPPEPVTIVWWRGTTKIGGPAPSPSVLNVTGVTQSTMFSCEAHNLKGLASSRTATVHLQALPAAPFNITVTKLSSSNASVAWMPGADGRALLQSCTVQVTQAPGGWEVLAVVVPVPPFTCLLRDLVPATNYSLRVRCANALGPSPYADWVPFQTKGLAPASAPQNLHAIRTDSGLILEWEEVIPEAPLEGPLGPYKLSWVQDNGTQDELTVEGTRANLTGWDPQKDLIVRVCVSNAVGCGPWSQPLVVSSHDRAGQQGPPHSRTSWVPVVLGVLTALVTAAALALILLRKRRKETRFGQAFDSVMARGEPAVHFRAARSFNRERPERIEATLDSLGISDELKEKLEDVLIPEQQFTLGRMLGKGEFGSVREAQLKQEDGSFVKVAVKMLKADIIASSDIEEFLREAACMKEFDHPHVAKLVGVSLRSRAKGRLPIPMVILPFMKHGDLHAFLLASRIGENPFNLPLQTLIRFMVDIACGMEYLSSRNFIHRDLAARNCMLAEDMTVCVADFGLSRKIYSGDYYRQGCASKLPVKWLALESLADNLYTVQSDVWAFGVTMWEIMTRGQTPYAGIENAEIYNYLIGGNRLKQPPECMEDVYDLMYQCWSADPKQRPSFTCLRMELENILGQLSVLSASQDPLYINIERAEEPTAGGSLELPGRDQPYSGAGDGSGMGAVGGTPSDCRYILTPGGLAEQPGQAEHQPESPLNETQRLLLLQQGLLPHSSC
# Chain of MKNK1 (Q9BUB5 whole entry): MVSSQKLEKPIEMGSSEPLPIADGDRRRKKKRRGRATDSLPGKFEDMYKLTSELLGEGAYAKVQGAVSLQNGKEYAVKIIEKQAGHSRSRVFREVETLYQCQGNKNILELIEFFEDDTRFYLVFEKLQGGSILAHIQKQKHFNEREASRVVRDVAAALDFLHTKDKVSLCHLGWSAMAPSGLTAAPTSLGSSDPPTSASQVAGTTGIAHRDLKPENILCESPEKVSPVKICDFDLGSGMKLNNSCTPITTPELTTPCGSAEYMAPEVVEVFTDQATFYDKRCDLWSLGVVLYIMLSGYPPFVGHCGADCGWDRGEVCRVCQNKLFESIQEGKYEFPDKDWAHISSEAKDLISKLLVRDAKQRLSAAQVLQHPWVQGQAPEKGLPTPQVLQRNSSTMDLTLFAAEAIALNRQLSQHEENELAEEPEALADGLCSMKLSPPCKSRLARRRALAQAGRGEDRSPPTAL
"% Inhibition at 0.2 μM, FLT3 [3] [%]","% Inhibition at 0.2 μM, TYRO3 [5] [%]","% Inhibition at 0.2 μM, MKNK1 [2] [%]","% Inhibition at 0.2 μM, MERTK [4] [%]",Compound,"IC50 ([1]; Homo sapiens, KM12) [nM]","inhibition at 0.2 µM ([2]; read-out: % Inhibition at 0.2 μM, MKNK1) [%]","inhibition at 0.2 µM ([4]; read-out: % Inhibition at 0.2 μM, MERTK) [%]",IC50 [1] [nM]
97,97,62,93,Cn1ncc2cc(Oc3ccc(NC(=O)c4ccc(CO)n(-c5ccc(F)cc5)c4=O)cc3F)c(-c3cn[nH]c3)cc21 [M2],,,,206
96,100,70,99,Cc1ccc(C(=O)Nc2ccc(Oc3cc4cn[nH]c4cc3-c3cn[nH]c3)c(F)c2)c(=O)n1-c1ccc(F)cc1 [M1],,,,79

Compound,"% Inhibition at 0.2 μM, FLT3 [3] [%]","% Inhibition at 0.2 μM, TYRO3 [5] [%]","% Inhibition at 0.2 μM, MKNK1 [2] [%]","% Inhibition at 0.2 μM, MERTK [4] [%]","IC50 ([1]; Homo sapiens, KM12) [nM]","inhibition at 0.2 µM ([2]; read-out: % Inhibition at 0.2 μM, MKNK1) [%]","inhibition at 0.2 µM ([4]; read-out: % Inhibition at 0.2 μM, MERTK) [%]",IC50 [1] [nM]
Cc1ccc(C(=O)Nc2ccc(Oc3cc4cnn(C)c4cc3-c3cn[nH]c3)c(F)c2)c(=O)n1-c1ccc(F)cc1 [Merestinib],95,99,,,45,56,96,
